The target of this test is T1, Tyrosine-protein kinase JAK3 [781-1124] (Homo sapiens, UniProt P52333).
T1 construct: 781-1124
The test is described as follows: Phosphorylation Assay. To be noted: pH 7.5. How it is done:
Phosphorylation of the appropriate peptide substrate (fluorescently labeled Srctide) by recombinant JAK3 (catalytic domain, aa 781-1124) was measured in the presence and absence of different concentrations of test compounds. Test compound, enzyme, fluorescently labeled substrate, and cofactors (ATP and Mg2+) were combined in a well of a microtiter plate and incubated for 2 hours at 25° C. The composition of the reaction buffer was 100 mM HEPES pH 7.5, 5 mM MgCl2, 0.01% Triton-X 100, 0.1% Bovine Serum Albumin, and 1% DMSO. Enzyme concentration in the final reaction mixture was 0.5 nM while peptide substrate was at 1 uM. ATP was used at 1xKm concentration corresponding to 2 uM. Serial dilutions (3-fold steps) of compounds were prepared in DMSO. At the end of the incubation, the reaction was stopped by the addition of 20 mM EDTA. Substrate and product (i.e. phosphorylated substrate) were separated electrophoretically and both were quantified by fluorescence intensity.

T1 sequence (P52333 781-1124): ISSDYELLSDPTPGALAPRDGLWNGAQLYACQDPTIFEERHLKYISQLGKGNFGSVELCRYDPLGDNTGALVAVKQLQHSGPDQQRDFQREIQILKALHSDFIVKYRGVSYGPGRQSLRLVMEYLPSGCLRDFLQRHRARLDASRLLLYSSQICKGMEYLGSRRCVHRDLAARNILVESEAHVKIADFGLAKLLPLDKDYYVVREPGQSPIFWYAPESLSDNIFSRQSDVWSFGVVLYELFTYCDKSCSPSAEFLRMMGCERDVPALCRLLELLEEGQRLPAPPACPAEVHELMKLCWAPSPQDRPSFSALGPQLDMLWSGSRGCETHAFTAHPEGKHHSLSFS

As a reminder, the IC50 is the concentration that gives 50% inhibition. Low values mean greater potency, high ones weaker potency. On to `CC(C)C(=O)c1c[nH]c2ncc(-c3cccc(C=C(C#N)C(=O)N(C)C)c3)nc12` [US9187487, 37], for which 190 nM corresponded to half-maximal inhibition (IC50).

`CC(C)(C)C(=O)c1c[nH]c2ncc(Nc3ccc(C=C4SC(=O)NC4=O)cc3)nc12` [US9187487, 65] had an IC50 of 4 nM.

The values are drawn from BindingDB's records for patent US9187487 (Principia Biopharma, 2015).
